Values after ≈ are worked out from the molar mass of the structure shown. One block for each molecule: values may come before it. Active and inactive are the calls of the source. No cut-off for these calls is given here.
Assays:
Aurora kinase A = target: T1, Aurora kinase A (Homo sapiens, UniProt O14965); assay: Allosteric inhibition of AurkA (unknown origin)
T1 sequence (O14965 whole entry): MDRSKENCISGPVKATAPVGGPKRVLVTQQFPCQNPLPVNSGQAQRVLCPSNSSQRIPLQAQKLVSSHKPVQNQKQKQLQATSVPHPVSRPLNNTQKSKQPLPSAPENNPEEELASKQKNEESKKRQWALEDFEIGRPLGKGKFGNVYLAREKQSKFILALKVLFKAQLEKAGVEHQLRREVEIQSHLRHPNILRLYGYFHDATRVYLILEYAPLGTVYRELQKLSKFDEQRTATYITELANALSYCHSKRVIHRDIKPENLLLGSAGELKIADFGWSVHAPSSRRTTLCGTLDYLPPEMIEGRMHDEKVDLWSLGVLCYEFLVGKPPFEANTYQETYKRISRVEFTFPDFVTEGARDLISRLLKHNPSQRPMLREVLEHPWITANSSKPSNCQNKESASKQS

HT-29 [1] = assay: Induction of cell cycle arrest at G2/M phase in human HT-29 cells at 100 uM measured after 48 hrs by RNase/PI staining based flow cytometry analysis; format: functional
HeLa [2] = assay: Induction of cell cycle arrest in human HeLa cells at 100 uM measured after 48 hrs by RNase/PI staining based flow cytometry analysis; format: functional
HeLa [3] = assay: Antiproliferative activity against human HeLa cells assessed as inhibition of cell growth incubated for 72 hrs in absence of PHA-767491 by celltiter-glo assay; format: functional
HCT-116 [4] = assay: Downregulation of phospho-histone H3 level at Ser10 residue in human HCT-116 cells at 20 uM measured at 48 hrs by Western blot analysis; format: functional, cell-based
[5] = Aqueous solubility of compound at pH 7.4; format: physicochemical
A549 = assay: Induction of cell cycle arrest in human A549 cells assessed as G1/S phase transition at 100 uM measured after 48 hrs by RNase/PI staining based flow cytometry analysis; format: functional
HT-29 [6] = assay: Downregulation of phospho-histone H3 level at Ser10 residue in human HT-29 cells at 20 uM measured at 12 to 24 hrs by Western blot analysis; format: functional, cell-based; conditions: time 12-24 hrs
HeLa [7] = assay: Inhibition of DNA replication during G1 to S transition in nocodazole synchronized human HeLa cells assessed as reduction in Edu content in new synthesized DNA by measuring Edu positive cells at 100 uM measured after 8 hrs by Edu incorporation based flow cytometry analysis (reference value: 19.7%); format: functional; parameters: scale not given: the % may be the effect or the level left
HCT-116 [8] = assay: Induction of cell cycle arrest at G2/M phase in human HCT-116 cells at 100 uM measured after 48 hrs by RNase/PI staining based flow cytometry analysis; format: functional
NCI-H358 = assay: Induction of cell cycle arrest in human NCI-H358 cells assessed as G1/S phase transition at 100 uM measured after 48 hrs by RNase/PI staining based flow cytometry analysis; format: functional
PANC-1 = assay: Induction of cell cycle arrest in human PANC-1 cells at 100 uM measured after 48 hrs by RNase/PI staining based flow cytometry analysis; format: functional
HeLa [9] = assay: Inhibition of DNA replication during G1 to S transition in nocodazole synchronized human HeLa cells assessed as reduction in Edu content in new synthesized DNA by measuring Edu positive cells at 100 uM measured after 9 hrs by Edu incorporation based flow cytometry analysis (reference value: 16.8%); format: functional; parameters: scale not given: the % may be the effect or the level left
[10] = Permeability of compound at 5 uM by PAMPA assay; format: ADME; conditions: read-out: permeability
HCT-116 [11] = assay: Downregulation of phospho-histone H3 level at Ser10 residue in human HCT-116 cells at 20 uM measured at 12 to 24 hrs by Western blot analysis; format: functional, cell-based; conditions: time 12-24 hrs
HeLa [12] = assay: cells; conditions: Homo sapiens, 72 h
HT-29 [13] = assay: Downregulation of phospho-histone H3 level at Ser10 residue in human HT-29 cells at 20 uM measured at 48 hrs by Western blot analysis; format: functional, cell-based
HeLa [14] = assay: Inhibition of DNA replication during G1 to S transition in nocodazole synchronized human HeLa cells assessed as reduction in Edu content in new synthesized DNA by measuring Edu positive cells at 1 uM measured after 9 hrs by Edu incorporation based flow cytometry analysis (reference value: 16.8%); format: functional, cell-based; parameters: scale not given: the % may be the effect or the level left
HeLa [15] = assay: Inhibition of DNA replication during G1 to S transition in nocodazole synchronized human HeLa cells assessed as reduction in Edu content in new synthesized DNA by measuring Edu positive cells at 1 uM measured after 8 hrs by Edu incorporation based flow cytometry analysis (reference value: 19.7%); format: functional, cell-based; parameters: scale not given: the % may be the effect or the level left

SMILES: COc1ccc(CNC(=O)C(C)Oc2ccc3c(c2)c2ccnc4c5ccccc5c(=O)n3c24)cc1 (stereo unspecified)
- IC50 (Aurora kinase A): < 20 µM

SMILES: O=C(NCc1ccc2c(c1)OCO2)c1cccc(-c2ccncc2)c1
- Activity (HT-29 [1]): Active
- Activity (HeLa [2]): inactive
- GI50 (HeLa [3]): 71.7 µM
- Activity (HCT-116 [4]): Active
- solubility [5]: 161 µM (≈ 53.5 µg/mL)
- Activity (A549): Active
- Activity (HT-29 [6]): inactive
- Activity (HeLa [7]): 7%
- Activity (HCT-116 [8]): Active
- Activity (NCI-H358): Active
- Activity (PANC-1): inactive
- Activity (HeLa [9]): 1.6%
- Papp at 5 µM [10]: 65.5 ×10⁻⁶ cm/s
- Activity (HCT-116 [11]): inactive
- GI50 (HeLa [12]): 14 µM
- Activity (HT-29 [13]): Active

SMILES: Cc1cc(Nc2cc(N3CCN(C)CC3)nc(Sc3ccc(NC(=O)C4CC4)cc3)n2)n[nH]1
- Activity (HeLa [14]): 22.1%
- Activity (HeLa [15]): 21.7%

The next lines start with the values.

- IC50 (Aurora kinase A): < 20 µM
SMILES: CC(Oc1ccc2c(c1)c1ccnc3c4ccccc4c(=O)n2c13)C(=O)NCc1ccc2c(c1)OCO2 (stereo unspecified)

- IC50 (Aurora kinase A): < 20 µM
SMILES: CC1=C(C(=O)Nc2ccc(F)cc2F)[C@H](c2cccnc2)C2=C(C[C@@H](c3ccccc3)CC2=O)N1

Source: ChEMBL document CHEMBL5550098, “Discovery of N-benzylbenzamide-based allosteric inhibitors of Aurora kinase A” (Bioorg Med Chem, 2024)
